Test [1] concerns A549. Briefly: Cytotoxicity against human A549 cells. The test is classed as functional.
The subject of test [2] is P388. Briefly: Cytotoxicity against mouse P388 cells. The test is classed as functional.

Converted amounts (≈) assume the structure as drawn.

In general, GI50 refers to the concentration that inhibits growth by half. High values mean lower sensitivity of the cells, low ones greater sensitivity of the cells. For the molecule `C=C[C@@]1(C)CC[C@H](/C(C)=C\CCC(=C)C)C[C@@H]1C(=C)C` [INELEGANENE], the GI50 in test [1] is 3.63 µg/mL (≈ 13.3 µM); in test [2], 0.2 µg/mL (≈ 0.734 µM).
